{"source": "ChEMBL document CHEMBL6182883", "about": "“Discovery of a series of novel 3-sulfonamido benzoic acid derivatives as promising P2Y14R antagonists for acute lung injury” (Eur J Med Chem, 2025)", "key": {"[1]": {"target": "T1, P2Y purinoceptor 14 (Homo sapiens) (UniProt Q15391)", "T1 sequence (whole entry)": "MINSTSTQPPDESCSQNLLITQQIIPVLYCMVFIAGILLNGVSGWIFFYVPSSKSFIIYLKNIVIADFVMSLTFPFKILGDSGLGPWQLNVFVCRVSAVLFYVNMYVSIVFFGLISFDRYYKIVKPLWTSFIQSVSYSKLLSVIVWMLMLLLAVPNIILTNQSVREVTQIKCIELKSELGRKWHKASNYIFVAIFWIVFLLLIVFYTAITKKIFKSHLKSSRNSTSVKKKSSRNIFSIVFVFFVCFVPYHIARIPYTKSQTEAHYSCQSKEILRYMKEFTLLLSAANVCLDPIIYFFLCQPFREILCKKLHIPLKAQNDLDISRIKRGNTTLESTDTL", "experiment": "Antagonist activity at human P2Y14R expressed in HEK293 cells assessed as inhibition of UDPG-induced Ca2+ level at 5 uM by Fluo-4 dye based fluorescence assay relative to control", "format": "functional, cell-based", "conditions": "filed as antagonist"}, "P2Y purinoceptor 14 [2]": {"target": "T2, P2Y purinoceptor 14 (Homo sapiens, UniProt Q15391)", "T2 sequence (Q15391 whole entry)": "T1 sequence (whole entry)", "experiment": "Antagonist activity at human P2Y14R expressed in HEK293 cells assessed as inhibition of UDPG-induced Ca2+ level by Fluo-4 dye based fluorescence assay", "format": "functional, cell-based"}, "[3]": {"target": "T1, P2Y purinoceptor 14 (Homo sapiens)", "experiment": "(§1) Binding affinity to P2Y14R (unknown origin) assessed as increase in response unit by surface plasmon resonance assay", "conditions": "filed as antagonist"}, "P2Y purinoceptor 14 [4]": {"target": "T2, P2Y purinoceptor 14", "experiment": "as §1"}, "[5]": {"experiment": "Cmax in SD […] at 5 mg/kg, iv", "format": "ADME, organism-based", "conditions": "in vivo"}, "[6]": {"experiment": "Half life in SD […] at 5 mg/kg, iv", "format": "ADME, organism-based", "conditions": "in vivo"}, "[7]": {"experiment": "Tmax in SD […] at 5 mg/kg, iv", "format": "ADME, organism-based", "conditions": "in vivo"}, "[8]": {"experiment": "AUC (0 to 24 hrs) in SD […] at 5 mg/kg, iv", "format": "ADME, organism-based", "conditions": "in vivo"}, "[9]": {"experiment": "Cmax in SD […] at 10 mg/kg, po", "format": "ADME, organism-based", "conditions": "in vivo"}, "[10]": {"experiment": "Half life in SD […] at 10 mg/kg, po", "format": "ADME, organism-based", "conditions": "in vivo"}, "[11]": {"experiment": "Tmax in SD […] at 10 mg/kg, po", "format": "ADME, organism-based", "conditions": "in vivo"}, "[12]": {"experiment": "AUC (0 to 24 hrs) in SD […] at 10 mg/kg, po", "format": "ADME, organism-based", "conditions": "in vivo"}, "[13]": {"experiment": "Clearance in SD […] at 10 mg/kg, po", "format": "ADME, organism-based", "conditions": "in vivo"}, "[14]": {"experiment": "Oral bioavailability in SD […] at 10 mg/kg", "format": "ADME, organism-based", "conditions": "in vivo"}, "[15]": {"experiment": "Aqueous solubility of the compound in pH 7.4 PBS buffer measured after 24 hrs by shake flask method", "format": "physicochemical"}, "[16]": {"experiment": "Aqueous solubility of the compound in pH 4 PBS buffer measured after 24 hrs by shake flask method", "format": "physicochemical"}, "Mus musculus [17]": {"system": "Mus musculus", "experiment": "Antiinflammatory activity in LPS-induced C57BL/6 mouse ALI model assessed as reduction in neutrophil infiltration at 2 mg/kg, po administered once daily via gavage for 7 days followed by endotoxin challenge at 1 hr post last dose and subsequent LPS stimulation and measured after 24 hrs by H and E staining based histopathological assay", "format": "functional, organism-based", "conditions": "time 8.0 day"}, "Mus musculus [18]": {"system": "Mus musculus", "experiment": "Antiinflammatory activity in LPS-induced C57BL/6 mouse ALI model assessed as reduction in interstitial hemorrhage at 2 mg/kg, po administered once daily via gavage for 7 days followed by endotoxin challenge at 1 hr post last dose and subsequent LPS stimulation and measured after 24 hrs by H and E staining based histopathological assay", "format": "functional, organism-based", "conditions": "time 8.0 day"}, "Mus musculus [19]": {"system": "Mus musculus", "experiment": "Antiinflammatory activity in LPS-induced C57BL/6 mouse ALI model assessed as reduction in interstitial hemorrhage at 6 mg/kg, po administered once daily via gavage for 7 days followed by endotoxin challenge at 1 hr post last dose and subsequent LPS stimulation and measured after 24 hrs by H and E staining based histopathological assay", "format": "functional, organism-based", "conditions": "time 8.0 day"}, "Mus musculus [20]": {"system": "Mus musculus", "experiment": "Antiinflammatory activity in LPS-induced C57BL/6 mouse ALI model assessed as reduction in alveolar wall thickening at 6 mg/kg, po administered once daily via gavage for 7 days followed by endotoxin challenge at 1 hr post last dose and subsequent LPS stimulation and measured after 24 hrs by H and E staining based histopathological assay", "format": "functional, organism-based", "conditions": "time 8.0 day"}, "Mus musculus [21]": {"system": "Mus musculus", "experiment": "Antiinflammatory activity in LPS-induced C57BL/6 mouse ALI model assessed as reduction in neutrophil infiltration at 6 mg/kg, po administered once daily via gavage for 7 days followed by endotoxin challenge at 1 hr post last dose and subsequent LPS stimulation and measured after 24 hrs by H and E staining based histopathological assay", "format": "functional, organism-based", "conditions": "time 8.0 day"}, "Mus musculus [22]": {"system": "Mus musculus", "experiment": "Antiinflammatory activity in LPS-induced C57BL/6 mouse ALI model assessed as appearance of intact alveolar structures at 6 mg/kg, po administered once daily via gavage for 7 days followed by endotoxin challenge at 1 hr post last dose and subsequent LPS stimulation and measured after 24 hrs by H and E staining based histopathological assay", "format": "functional, organism-based", "conditions": "time 8.0 day"}, "Mus musculus [23]": {"system": "Mus musculus", "experiment": "Antiinflammatory activity in LPS-induced C57BL/6 mouse ALI model assessed as reduction in inflammatory response in lung administered once daily via oral gavage for 7 days followed by endotoxin challenge at 1 hr post last dose and subsequent LPS stimulation and measured after 24 hrs by H and E staining based histopathological assay", "format": "functional, organism-based", "conditions": "dose 2-6 mg/kg, time 8.0 day"}, "Mus musculus [24]": {"system": "Mus musculus", "experiment": "Antiinflammatory activity in LPS-induced C57BL/6 mouse ALI model assessed as reduction in IL-1beta expression in BALF at 2 to 6 mg/kg, po administered once daily via gavage for 7 days followed by endotoxin challenge at 1 hr post last dose and subsequent LPS stimulation and measured after 24 hrs by ELISA", "format": "functional, organism-based", "conditions": "dose 2-6 mg/kg, time 8.0 day"}, "Mus musculus [25]": {"system": "Mus musculus", "experiment": "Antiinflammatory activity in LPS-induced C57BL/6 mouse ALI model assessed as reduction in IL-6 expression in BALF at 2 to 6 mg/kg, po administered once daily via gavage for 7 days followed by endotoxin challenge at 1 hr post last dose and subsequent LPS stimulation and measured after 24 hrs by ELISA", "format": "functional, organism-based", "conditions": "dose 2-6 mg/kg, time 8.0 day"}, "Mus musculus [26]": {"system": "Mus musculus", "experiment": "Antiinflammatory activity in LPS-induced C57BL/6 mouse ALI model assessed as reduction in TNF-alpha expression in BALF at 2 to 6 mg/kg, po administered once daily via gavage for 7 days followed by endotoxin challenge at 1 hr post last dose and subsequent LPS stimulation and measured after 24 hrs by ELISA", "format": "functional, organism-based", "conditions": "dose 2-6 mg/kg, time 8.0 day"}, "Mus musculus [27]": {"system": "Mus musculus", "experiment": "Antiinflammatory activity in LPS-induced C57BL/6 mouse ALI model assessed as reduction in MPO level in BALF at 6 mg/kg, po administered once daily via gavage for 7 days followed by endotoxin challenge at 1 hr post last dose and subsequent LPS stimulation and measured after 24 hrs by ELISA", "format": "functional, organism-based", "conditions": "time 8.0 day"}}, "note": "Active and inactive are the calls of the source. The rule behind the calls is not given here."}
{"compound": "O=C(O)c1cc(NS(=O)(=O)CCc2ccc(C(F)(F)F)cc2)cc(-c2ccc(C3CCNCC3)cc2)c1", "values": [{"measurement": "inhibition", "setting": "[1]", "value": 99.6, "unit": "%"}, {"measurement": "IC50", "setting": "P2Y purinoceptor 14 [2]", "value": 0.0056, "unit": "µM"}, {"measurement": "Activity", "setting": "[3]", "value": "Dose-dependent-effect"}, {"measurement": "Kd", "setting": "P2Y purinoceptor 14 [4]", "value": 1.73, "unit": "µM"}, {"measurement": "Cmax", "setting": "[5]", "value": 731, "unit": "ng/mL"}, {"measurement": "half-life", "setting": "[6]", "value": 2.6, "unit": "h"}, {"measurement": "Tmax", "setting": "[7]", "value": 0.933, "unit": "h"}, {"measurement": "AUC", "setting": "[8]", "value": 1764, "unit": "ng·h/mL"}, {"measurement": "Cmax", "setting": "[9]", "value": 984, "unit": "ng/mL"}, {"measurement": "half-life", "setting": "[10]", "value": 4.5, "unit": "h"}, {"measurement": "Tmax", "setting": "[11]", "value": 1.55, "unit": "h"}, {"measurement": "AUC(0-t)", "setting": "[12]", "value": 2170, "unit": "ng·h/mL"}, {"measurement": "CL/F", "setting": "[13]", "value": 18.6, "unit": "mL/min/kg"}, {"measurement": "bioavailability", "setting": "[14]", "value": 44, "unit": "%"}, {"measurement": "solubility thermodynamic at 24 h", "setting": "[15]", "value": 108, "unit": "µg/mL"}, {"measurement": "solubility thermodynamic at 24 h", "setting": "[16]", "value": 127, "unit": "µg/mL"}, {"measurement": "Activity", "setting": "Mus musculus [17]", "value": "Active"}, {"measurement": "Activity", "setting": "Mus musculus [18]", "value": "Not active; No Significant Interstitial Hemorrhage Observed"}, {"measurement": "Activity", "setting": "Mus musculus [19]", "value": "Active; Substantial Reduction Observed"}, {"measurement": "Activity", "setting": "Mus musculus [20]", "value": "Active"}, {"measurement": "Activity", "setting": "Mus musculus [21]", "value": "Active"}, {"measurement": "Activity", "setting": "Mus musculus [22]", "value": "Active"}, {"measurement": "Activity", "setting": "Mus musculus [23]", "value": "Dose-dependent-effect"}, {"measurement": "Activity", "setting": "Mus musculus [24]", "value": "Active"}, {"measurement": "Activity", "setting": "Mus musculus [25]", "value": "Active"}, {"measurement": "Activity", "setting": "Mus musculus [26]", "value": "Active"}, {"measurement": "Activity", "setting": "Mus musculus [27]", "value": "Active"}]}
